# ChEMBL document CHEMBL3132769, “Fragment growing to retain or alter the selectivity of anchored kinase hinge-binding fragments” (Medchemcomm, 2014)
# Legend:
# [1] = target: Protein kinase C theta type (Homo sapiens) (UniProt Q04759); assay: Inhibition of human truncated PKC theta expressed in baculovirus assessed as substrate phosphorylation using fluorescence-labelled peptides as substrate at 0.06 uM after 90 mins by microfluidic peptide phosphorylation assay
# [2] = target: MAP/microtubule affinity-regulating kinase 3 (Homo sapiens) (UniProt P27448); assay: Inhibition of human full length c-TAK1 expressed in Escherichia coli cell assessed as substrate phosphorylation using fluorescence-labelled peptides as substrate at 420 uM after 90 mins by microfluidic peptide phosphorylation assay
# MAP/microtubule affinity-regulating kinase 3 (Homo sapiens), sequence (P27448 whole entry, looked up): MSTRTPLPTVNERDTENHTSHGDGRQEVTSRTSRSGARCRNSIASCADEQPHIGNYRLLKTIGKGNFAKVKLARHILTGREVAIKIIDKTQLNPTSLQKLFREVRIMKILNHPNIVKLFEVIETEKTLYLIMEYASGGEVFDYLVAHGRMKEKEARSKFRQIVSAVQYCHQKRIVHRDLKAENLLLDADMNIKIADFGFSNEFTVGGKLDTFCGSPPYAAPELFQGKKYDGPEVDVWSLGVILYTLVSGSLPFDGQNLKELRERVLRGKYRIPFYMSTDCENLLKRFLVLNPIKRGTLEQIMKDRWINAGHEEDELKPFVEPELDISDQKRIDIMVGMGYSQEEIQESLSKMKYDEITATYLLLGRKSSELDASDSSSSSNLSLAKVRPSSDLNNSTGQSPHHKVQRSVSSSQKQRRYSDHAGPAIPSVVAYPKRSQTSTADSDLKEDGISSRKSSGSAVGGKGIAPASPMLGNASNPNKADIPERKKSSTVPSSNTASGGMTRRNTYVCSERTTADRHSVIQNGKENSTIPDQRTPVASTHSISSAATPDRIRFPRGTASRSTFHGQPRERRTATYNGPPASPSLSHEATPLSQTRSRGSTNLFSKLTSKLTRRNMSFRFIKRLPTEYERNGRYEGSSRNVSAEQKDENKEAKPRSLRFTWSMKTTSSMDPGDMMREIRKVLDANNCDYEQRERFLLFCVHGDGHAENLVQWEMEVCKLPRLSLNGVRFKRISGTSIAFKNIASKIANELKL
# [3] = target: T1, Serine/threonine-protein kinase Sgk3 (Homo sapiens) (UniProt Q96BR1); assay: Inhibition of human full length SGK3 expressed in baculovirus assessed as substrate phosphorylation using fluorescence-labelled peptides as substrate at 420 uM after 90 mins by microfluidic peptide phosphorylation assay
# T1 sequence (whole entry): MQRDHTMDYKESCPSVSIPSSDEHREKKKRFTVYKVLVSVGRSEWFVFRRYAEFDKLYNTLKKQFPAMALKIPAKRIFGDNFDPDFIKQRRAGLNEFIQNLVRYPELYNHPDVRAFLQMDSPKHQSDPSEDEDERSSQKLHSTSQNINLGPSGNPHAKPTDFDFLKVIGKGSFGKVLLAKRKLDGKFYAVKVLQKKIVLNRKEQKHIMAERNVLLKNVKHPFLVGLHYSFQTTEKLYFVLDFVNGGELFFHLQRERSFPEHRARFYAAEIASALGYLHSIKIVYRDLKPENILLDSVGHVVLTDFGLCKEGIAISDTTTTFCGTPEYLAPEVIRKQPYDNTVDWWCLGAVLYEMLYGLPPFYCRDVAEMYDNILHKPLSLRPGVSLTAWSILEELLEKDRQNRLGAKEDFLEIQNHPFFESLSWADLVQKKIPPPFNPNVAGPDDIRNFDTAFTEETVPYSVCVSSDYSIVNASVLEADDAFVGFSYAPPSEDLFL
# [4] = target: Tyrosine-protein kinase Fer (Homo sapiens) (UniProt P16591); assay: Inhibition of human FER catalytic domain expressed in baculovirus assessed as substrate phosphorylation using fluorescence-labelled peptides as substrate at 0.2 uM after 90 mins by microfluidic peptide phosphorylation assay
# Tyrosine-protein kinase Fer (Homo sapiens), sequence (P16591 whole entry, looked up, the tested form may be a part): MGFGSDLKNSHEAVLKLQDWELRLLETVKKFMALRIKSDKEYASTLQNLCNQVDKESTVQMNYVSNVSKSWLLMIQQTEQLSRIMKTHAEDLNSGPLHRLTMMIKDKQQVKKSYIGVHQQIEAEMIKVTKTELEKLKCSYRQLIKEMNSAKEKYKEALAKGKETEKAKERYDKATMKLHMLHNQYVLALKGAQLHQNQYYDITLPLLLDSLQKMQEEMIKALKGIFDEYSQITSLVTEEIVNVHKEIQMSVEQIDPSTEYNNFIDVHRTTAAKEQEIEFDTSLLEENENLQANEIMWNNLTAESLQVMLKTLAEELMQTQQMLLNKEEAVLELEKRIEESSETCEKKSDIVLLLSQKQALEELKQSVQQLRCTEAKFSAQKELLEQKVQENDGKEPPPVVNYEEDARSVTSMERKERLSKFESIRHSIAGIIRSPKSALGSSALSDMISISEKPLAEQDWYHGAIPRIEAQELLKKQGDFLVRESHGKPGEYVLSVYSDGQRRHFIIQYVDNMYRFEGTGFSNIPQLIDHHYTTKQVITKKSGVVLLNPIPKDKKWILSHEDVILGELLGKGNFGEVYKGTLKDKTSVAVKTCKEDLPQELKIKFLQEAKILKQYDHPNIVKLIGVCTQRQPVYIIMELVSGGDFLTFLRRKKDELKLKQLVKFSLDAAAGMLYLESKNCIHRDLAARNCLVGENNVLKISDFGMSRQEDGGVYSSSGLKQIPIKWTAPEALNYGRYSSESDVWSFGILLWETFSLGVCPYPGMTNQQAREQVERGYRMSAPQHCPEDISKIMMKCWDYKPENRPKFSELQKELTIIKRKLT
# [5] = target: T2, MAP kinase-activated protein kinase 5 (Homo sapiens) (UniProt Q8IW41); assay: Inhibition of human full length PRAK expressed in baculovirus assessed as substrate phosphorylation using fluorescence-labelled peptides as substrate at […] after 90 mins by microfluidic peptide phosphorylation assay
# T2 sequence (whole entry): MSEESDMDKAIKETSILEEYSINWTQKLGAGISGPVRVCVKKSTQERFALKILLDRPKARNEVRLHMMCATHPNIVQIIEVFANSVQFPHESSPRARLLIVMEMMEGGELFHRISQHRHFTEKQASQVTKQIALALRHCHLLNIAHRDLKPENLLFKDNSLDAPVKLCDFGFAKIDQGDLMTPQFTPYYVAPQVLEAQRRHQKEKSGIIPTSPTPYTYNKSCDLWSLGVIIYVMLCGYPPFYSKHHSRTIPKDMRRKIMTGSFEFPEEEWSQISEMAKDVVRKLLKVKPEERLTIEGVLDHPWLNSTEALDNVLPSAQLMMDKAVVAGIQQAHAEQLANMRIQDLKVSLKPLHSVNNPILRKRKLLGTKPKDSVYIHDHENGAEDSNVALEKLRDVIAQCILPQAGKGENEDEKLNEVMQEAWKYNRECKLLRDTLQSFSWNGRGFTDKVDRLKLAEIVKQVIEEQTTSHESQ
# [6] = target: Mitogen-activated protein kinase kinase kinase kinase 4 (Homo sapiens) (UniProt O95819); assay: Inhibition of human HGK catalytic domain expressed in baculovirus assessed as substrate phosphorylation using fluorescence-labelled peptides as substrate at 9 uM after 90 mins by microfluidic peptide phosphorylation assay
# [7] = target: Serine/threonine-protein kinase Chk2 (Homo sapiens) (UniProt O96017); assay: Inhibition of human full length CHK2 expressed in baculovirus assessed as substrate phosphorylation using fluorescence-labelled peptides as substrate at 70 uM after 90 mins by microfluidic peptide phosphorylation assay
# Serine/threonine-protein kinase Chk2 (Homo sapiens), sequence (O96017 whole entry): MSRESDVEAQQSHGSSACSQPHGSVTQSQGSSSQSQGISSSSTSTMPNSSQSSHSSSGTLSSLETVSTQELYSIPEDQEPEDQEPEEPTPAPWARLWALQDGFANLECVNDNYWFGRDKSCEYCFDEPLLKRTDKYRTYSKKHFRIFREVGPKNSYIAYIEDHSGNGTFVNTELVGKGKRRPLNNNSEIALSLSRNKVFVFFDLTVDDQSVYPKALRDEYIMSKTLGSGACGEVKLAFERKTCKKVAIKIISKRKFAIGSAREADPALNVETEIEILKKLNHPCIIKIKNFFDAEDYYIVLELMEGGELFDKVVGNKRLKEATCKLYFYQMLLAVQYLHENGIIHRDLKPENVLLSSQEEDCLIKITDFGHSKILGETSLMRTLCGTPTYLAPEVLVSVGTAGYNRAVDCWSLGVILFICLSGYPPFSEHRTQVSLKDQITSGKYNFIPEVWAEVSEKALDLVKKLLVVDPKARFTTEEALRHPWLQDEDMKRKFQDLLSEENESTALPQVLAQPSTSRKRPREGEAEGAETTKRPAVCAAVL
# [8] = target: T3, Serine/threonine-protein kinase D2 (Homo sapiens) (UniProt Q9BZL6); assay: Inhibition of human full length PKD2 expressed in baculovirus assessed as substrate phosphorylation using fluorescence-labelled peptides as substrate at 70 uM after 90 mins by microfluidic peptide phosphorylation assay
# T3 sequence (whole entry): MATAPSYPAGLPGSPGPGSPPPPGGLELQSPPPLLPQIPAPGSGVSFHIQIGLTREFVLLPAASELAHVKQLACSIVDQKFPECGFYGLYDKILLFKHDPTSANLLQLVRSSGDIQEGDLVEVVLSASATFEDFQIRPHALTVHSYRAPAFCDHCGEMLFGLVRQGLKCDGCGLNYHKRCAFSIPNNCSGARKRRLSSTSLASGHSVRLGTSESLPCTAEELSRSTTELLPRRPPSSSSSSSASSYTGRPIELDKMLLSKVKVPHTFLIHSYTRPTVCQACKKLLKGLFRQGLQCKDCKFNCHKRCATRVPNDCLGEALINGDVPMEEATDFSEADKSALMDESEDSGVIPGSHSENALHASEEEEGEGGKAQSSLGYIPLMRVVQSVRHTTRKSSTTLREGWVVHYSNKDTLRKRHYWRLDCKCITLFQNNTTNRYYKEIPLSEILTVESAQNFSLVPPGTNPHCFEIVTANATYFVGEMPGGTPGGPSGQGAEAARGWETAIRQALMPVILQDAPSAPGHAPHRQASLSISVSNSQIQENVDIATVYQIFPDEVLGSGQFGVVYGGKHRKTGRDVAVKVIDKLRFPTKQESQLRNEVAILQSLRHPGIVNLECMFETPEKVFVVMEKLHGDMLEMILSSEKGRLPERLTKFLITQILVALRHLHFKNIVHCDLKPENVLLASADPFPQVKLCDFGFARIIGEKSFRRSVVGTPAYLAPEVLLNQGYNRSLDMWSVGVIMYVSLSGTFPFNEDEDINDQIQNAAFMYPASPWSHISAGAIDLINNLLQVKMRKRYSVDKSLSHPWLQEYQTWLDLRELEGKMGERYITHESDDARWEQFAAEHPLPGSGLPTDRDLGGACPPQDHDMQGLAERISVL
# [9] = target: Glycogen synthase kinase-3 beta (Homo sapiens) (UniProt P49841); assay: Inhibition of human full length GSK-3 beta expressed in baculovirus assessed as substrate phosphorylation using fluorescence-labelled peptides as substrate at 1000 uM after 90 mins by microfluidic peptide phosphorylation assay
# Glycogen synthase kinase-3 beta (Homo sapiens), sequence (P49841 whole entry, looked up): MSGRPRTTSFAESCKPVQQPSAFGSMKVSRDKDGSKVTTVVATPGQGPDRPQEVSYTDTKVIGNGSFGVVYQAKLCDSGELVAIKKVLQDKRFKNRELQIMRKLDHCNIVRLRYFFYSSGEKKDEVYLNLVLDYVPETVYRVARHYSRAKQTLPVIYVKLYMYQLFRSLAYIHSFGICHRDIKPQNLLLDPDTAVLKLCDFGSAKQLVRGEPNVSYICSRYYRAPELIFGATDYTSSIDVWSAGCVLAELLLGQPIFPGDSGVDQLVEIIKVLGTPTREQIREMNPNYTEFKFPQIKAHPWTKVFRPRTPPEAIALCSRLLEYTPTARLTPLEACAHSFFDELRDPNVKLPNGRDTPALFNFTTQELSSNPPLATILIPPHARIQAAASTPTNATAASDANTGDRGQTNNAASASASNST
# [10] = target: Dual specificity tyrosine-phosphorylation-regulated kinase 1A (Rattus norvegicus) (UniProt Q63470); assay: Inhibition of rat full length DYRK1a expressed in Escherichia coli cell assessed as substrate phosphorylation using fluorescence-labelled peptides as substrate at 2 uM after 90 mins by microfluidic peptide phosphorylation assay
# [11] = target: Hepatocyte growth factor receptor (Homo sapiens) (UniProt P08581); assay: Inhibition of human MET cytoplasmic domain expressed in baculovirus assessed as substrate phosphorylation using fluorescence-labelled peptides as substrate at 2 uM after 90 mins by microfluidic peptide phosphorylation assay
# Hepatocyte growth factor receptor (Homo sapiens), sequence (P08581 whole entry, the tested form may be a part): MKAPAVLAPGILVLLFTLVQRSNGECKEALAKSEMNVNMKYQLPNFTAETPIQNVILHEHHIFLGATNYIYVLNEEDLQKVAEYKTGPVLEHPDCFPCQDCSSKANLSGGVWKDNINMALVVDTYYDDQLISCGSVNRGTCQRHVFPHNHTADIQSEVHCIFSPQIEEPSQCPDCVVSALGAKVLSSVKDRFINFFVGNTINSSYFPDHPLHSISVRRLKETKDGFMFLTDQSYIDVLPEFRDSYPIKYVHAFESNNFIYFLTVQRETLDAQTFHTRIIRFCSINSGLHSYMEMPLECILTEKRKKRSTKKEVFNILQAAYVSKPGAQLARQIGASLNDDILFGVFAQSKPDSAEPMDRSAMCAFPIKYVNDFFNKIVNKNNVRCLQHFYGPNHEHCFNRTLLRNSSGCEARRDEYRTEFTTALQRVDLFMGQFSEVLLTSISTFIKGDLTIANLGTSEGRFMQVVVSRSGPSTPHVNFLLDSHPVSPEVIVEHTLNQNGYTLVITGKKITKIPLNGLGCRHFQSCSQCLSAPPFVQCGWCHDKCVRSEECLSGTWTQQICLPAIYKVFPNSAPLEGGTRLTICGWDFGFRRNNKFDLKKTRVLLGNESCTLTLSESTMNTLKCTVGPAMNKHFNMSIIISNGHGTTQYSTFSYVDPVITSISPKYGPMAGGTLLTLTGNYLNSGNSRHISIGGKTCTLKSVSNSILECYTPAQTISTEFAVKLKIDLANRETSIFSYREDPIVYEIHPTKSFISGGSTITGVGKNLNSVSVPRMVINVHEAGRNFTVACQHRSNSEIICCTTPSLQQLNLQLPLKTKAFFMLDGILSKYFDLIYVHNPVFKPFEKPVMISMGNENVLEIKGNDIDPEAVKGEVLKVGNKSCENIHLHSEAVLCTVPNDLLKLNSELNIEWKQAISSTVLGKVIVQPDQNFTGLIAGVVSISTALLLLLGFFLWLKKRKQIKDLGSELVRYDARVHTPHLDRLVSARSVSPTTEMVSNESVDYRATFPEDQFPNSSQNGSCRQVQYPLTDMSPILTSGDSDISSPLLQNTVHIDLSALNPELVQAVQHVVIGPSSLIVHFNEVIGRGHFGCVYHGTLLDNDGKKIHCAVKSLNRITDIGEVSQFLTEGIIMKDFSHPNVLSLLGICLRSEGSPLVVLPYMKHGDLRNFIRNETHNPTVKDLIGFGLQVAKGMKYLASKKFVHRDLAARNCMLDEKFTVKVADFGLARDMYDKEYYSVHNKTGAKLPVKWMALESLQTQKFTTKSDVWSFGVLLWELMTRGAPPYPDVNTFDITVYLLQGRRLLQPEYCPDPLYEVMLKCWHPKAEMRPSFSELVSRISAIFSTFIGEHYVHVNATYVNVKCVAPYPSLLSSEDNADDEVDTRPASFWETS
# Protein kinase C theta type (Homo sapiens), sequence (Q04759 whole entry, looked up, the tested form may be a part): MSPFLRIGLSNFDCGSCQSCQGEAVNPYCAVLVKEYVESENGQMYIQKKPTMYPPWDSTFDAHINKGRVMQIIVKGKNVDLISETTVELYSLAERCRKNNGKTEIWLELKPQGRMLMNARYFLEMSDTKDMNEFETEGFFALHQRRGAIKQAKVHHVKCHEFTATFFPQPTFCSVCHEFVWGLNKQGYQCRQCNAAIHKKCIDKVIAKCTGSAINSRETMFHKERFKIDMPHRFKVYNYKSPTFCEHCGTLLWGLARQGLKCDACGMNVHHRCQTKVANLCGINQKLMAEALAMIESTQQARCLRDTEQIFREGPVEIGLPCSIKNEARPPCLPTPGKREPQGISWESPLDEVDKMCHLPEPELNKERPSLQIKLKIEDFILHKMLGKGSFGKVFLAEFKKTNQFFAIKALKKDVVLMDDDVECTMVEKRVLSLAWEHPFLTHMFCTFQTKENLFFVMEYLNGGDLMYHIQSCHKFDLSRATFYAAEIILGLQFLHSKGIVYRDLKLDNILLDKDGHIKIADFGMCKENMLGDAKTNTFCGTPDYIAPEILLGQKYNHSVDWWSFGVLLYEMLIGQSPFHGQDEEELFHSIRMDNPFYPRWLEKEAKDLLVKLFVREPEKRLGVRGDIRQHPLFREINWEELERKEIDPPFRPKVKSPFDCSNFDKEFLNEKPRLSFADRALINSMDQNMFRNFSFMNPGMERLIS
structure (smiles),measurement,setting,value
NC1(Cc2ccc(Cl)cc2)CCN(c2ncnc3[nH]ccc23)CC1,inhibition,[1],4.5%
c1nc(N2CCOCC2)c2nc[nH]c2n1,inhibition,[2],86.5%
same,inhibition,[3],63%
Clc1ccc(C2(c3ccc(-c4ncnc5[nH]cnc45)cc3)CCNCC2)cc1,inhibition,[4],2.5%
COC(=O)c1cnc(Nc2cnc(C#N)cn2)cc1NCC1CCNCC1,inhibition,[5],4%
NCC1CN(c2ncnc3[nH]c4cnccc4c23)CCO1 (stereo unspecified),inhibition,[6],54.5%
CNCc1ccc(-c2ncnc3[nH]cnc23)cc1,inhibition,[7],57.5%
same,inhibition,[8],77.5%
c1cnc2[nH]ccc2c1,inhibition,[9],32%
NC1CCN(c2ncnc3[nH]ccc23)CC1,inhibition,[10],0.5%
same,inhibition,[11],0%
